Columns and labels:
H1299 cells [1] = experiment: Apoptosis and cell cycle by flow cytometry, H1299 cells; format: cell-based, human; details: vs Scr
Method: The in vitro viability of H1299 cells was assessed using the Cell Counting Kit-8 (CCK-8, Dojindo, Japan) according to the manufacturer’s protocol. Flow cytometric analysis of apoptosis was assessed by Annexin V and PI staining using the Annexin V-APC Apoptosis Detection Kit (KeyGEN BioTECH, China) according to the manufacturer’s guide. For cell cycle analysis, cells were harvested and fixed at 4 °C overnight with 70% ethanol. Cells were washed twice with PBS, and their DNA was stained using a Cell Cycle Detection Kit (KeyGEN BioTECH, China). The samples were analyzed by flow cytometry (Becton Dickinson, NJ, USA), and results were analyzed with FlowJo software according to the manufacturer’s instructions. For the wound healing assay, cells were plated to confluence in a 6-well plate, and the cell monolayer was scratched using a pipette tip. Representative photos were taken using a digital camera mounted on an inverted microscope (Olympus) at indicated times. Live cell imaging was performed using the HoloMonitor M4 time-lapse cytometer (Phase Holographic Imaging, Sweden). […]
Supplementary Figure 1. […] (b and c) Representative images from three independent experiments of apoptosis (b) and cell cycle analysis (c) of Scr and NatD-KD H1299 cells analyzed by flow cytometry. […]

H1299 cells [2] = experiment: TGF-β1-induced EMT experiment (morphology), H1299 cells; format: cell-based, human; details: TGF-β1-treated NatD knockdown H1299 cells
Text: Fig. 4 Silencing NatD suppresses cancer cell EMT by downregulating Slug. a Representative phase contrast images of Scr and NatD-KD H1299 cells treated with TGF-β1. Data are representative of three independent experiments. Scale bar, 100 μm. b Quantitative real-time PCR analysis of mRNA levels of indicated key EMT-related genes in Scr and NatD-KD H1299 cells normalized to GAPDH in the absence or presence of TGF-β1. Results are shown as mean ± s.d. of three independent experiments. Two-tailed Student’s t-test was used. **P < 0.01 or *P < 0.05 compared with the indicated control. c Western blot analysis of indicated protein levels in Scr and NatD-KD H1299 cells in the absence or presence of TGF-β1. GAPDH served as a loading control. Data are representative of three independent experiments. d Immunofluorescence analysis of Scr and NatD-KD H1299 cells in the absence or presence of TGF-β1 stained for E-cadherin and N-cadherin. […] (bottom panels) Cells were counted in at least four random microscope fields (×100 magnification) for the corresponding assays; migration and invasion are expressed as a percentage of control. […] Two-tailed Student’s t-test was used. **P < 0.01 compared with the indicated control. g Quantitative real-time PCR analysis of the mRNA levels of NatD and indicated key EMT-related genes (normalized to GAPDH) in Scr cells, NatD-KD cells, and NatD-KD + Slug cells. […]

Substance: NatD-KD2: Human NatD shRNA KD2: 5′-GGTTGAATGTCTCCATTGA-3′, lentiviral (shRNA lentiviral)
- numbers of apoptotic cells or cell cycle (H1299 cells [1]): no difference
- morphology on TGF-β1 treatment, NatD knockdown cells (H1299 cells [2]): mostly retained their rounded epithelial morphology

— publication PMC5640650, “NatD promotes lung cancer progression by preventing histone H4 serine phosphorylation to activate Slug expression” (Nature Communications, 2017)
